Measured values from article PMC12040169 (PLOS Biology, 2025).

Experiment: in vitro
Settings: human, hela cells, % viability

SMILES	viability at 28.5 h, 10 µM
COc1ccc(-c2cc(-c3nnc(S)n3-c3ccccc3Cl)[nH]n2)cc1 [CBK265880]	100%
CCOc1ccccc1-c1ccccc1NC(=O)c1cc(=O)n(C)c2ccccc12 [CBK285843]	100%
CCc1ccc(-c2cnccc2-n2ccnc2)cc1 [CBK177151]	93%
CCOc1ccc(-c2nc(CSc3n[nH]c(=O)n3CCc3ccccc3)cs2)cc1 [CBK296735]	94.7%
CC(C)(C)N1C(=O)c2ccc(C(=O)Nc3ccccc3C(=O)O)cc2C1=O [CBK287004]	112%
CC(=O)NCCNC(=O)c1ccc(C)nc1N1CCOCC1 [CBK076453]	98.6%
CCOc1ccc(NC(=O)C(C)O)c(NS(=O)(=O)c2ccc3ccccc3c2)c1 (centres unmarked) [CBK268309]	87.6%
O=C(c1ncccc1O)N1CC(O)CC1c1cc(F)ccc1F (centres unmarked) [CBK306452]	97.9%
CCCn1ccnc1CNc1nc(C(C)(C)C)nc2c1cnn2C [CBK306739]	91.3%
Cc1nc(-c2cccc(OC(F)F)c2)n(C2CCN(C)CC2)n1 [CBK307382]	97.1%
Cc1nn(C)cc1CN(CCCn1ccnc1)Cc1cccc(F)c1 [CBK283098]	92.3%
O=C(c1c(F)cccc1F)N1CCC(O)(c2cccnc2F)CC1 [CBK284359]	97.7%
CCN(CC)C(=O)CSc1nnc[nH]1 [CBK026212]	93.3%
Clc1cc(CSc2nnnn2-c2ccccc2)cc2c1OCCCO2 [CBK297159]	92.5%
Cc1nn(CC(=O)NC(C)c2cccnc2)c(C)c1C (centres unmarked) [CBK281489]	102%
Cc1nn(CCNC(=O)C2CC(=O)N(CC(C)C)C2)c(C)c1C (centres unmarked) [CBK281630]	88%
COc1ccc(C(C)C)cc1-c1cnc2[nH]c(=O)n(CCc3cccnc3)c2n1 [CBK064343]	90.4%
Cn1c(C(=O)OCC(=O)NC(C)(C)C)cc2occc21 [CBK284015]	109%
CCC(C)NC(=O)Cn1c(C2CCOCC2)cc2cc(C)cnc21 (centres unmarked) [CBK284756]	94.3%
O=C(c1cccc2[nH]ccc12)N1CCN(CCc2ccccc2)CC1 [CBK200203]	104%
CCCn1c(SCC(=O)N2CCN(S(=O)(=O)c3ccc(C)cc3C)CC2)n[nH]c1=O [CBK295590]	104%
CCOC(=O)c1cccc(NS(=O)(=O)c2ccc(NC(C)=O)cc2)c1 [CBK034349]	78.8%

SMILES	viability at 28.5 h, 10 µM
COc1cccc(C(=O)NCCC(=O)N2CCN(C)CC2)c1 [CBK304663]	95.4%
COc1ccccc1NC(=O)C1=C(C)Nc2nnnn2C1c1ccc(OC)c([N+](=O)[O-])c1 (centres unmarked) [CBK293954]	83.8%
COc1cccc(C(NC(=O)c2cc(CN3CCOCC3)c(C)o2)c2ccccc2)c1 (centres unmarked) [CBK286279]	93.4%
CCN(CC)CCCCC1(C)SC(NC2CCCCCC2)=NC1=O (centres unmarked) [CBK113257]	96.9%
CN(c1cc(F)ccc1[N+](=O)[O-])S(=O)(=O)c1ccccc1 [CBK001369]	97.5%
Cn1c(=O)c2c(ncn2CC(=O)Nc2ccccc2C#N)n(C)c1=O [CBK133465]	89.6%
CC(C)N1CC(C(=O)N(C)C)C2(CCc3ccccc3C2O)C1 (centres unmarked) [CBK286305]	89.1%
CCc1c(C)nc2c(C(=O)NCCCN3CCCC3=O)cnn2c1C [CBK162128]	96.2%
O=C(NC1CCN(CC2(c3ccccc3)CC2)CC1)c1ccco1 [CBK285321]	83.7%
NS(=O)(=O)c1ccc(NC(=S)NC(=O)/C=C/c2ccco2)cc1 [CBK261066]	93%
c1nc(Sc2nccs2)cc(N2CCCC2)n1 [CBK093748]	100%
Cc1sc2ncn(CC(=O)NCc3nnc4n3CCC4)c(=O)c2c1C [CBK305654]	93.8%
Cn1ccc(C2CCCCCN2C(=O)c2cc(C3CC3)on2)n1 (centres unmarked) [CBK283050]	104%
O=C(c1cccc2[nH]ccc12)N1CCCC2(CCN(Cc3ccccc3)C2)C1 (centres unmarked) [CBK136887]	93.5%
O=C(c1ccco1)N1CCC2(CCCNC2)C1 (centres unmarked) [CBK153233C]	93.8%
Cc1cccc(-c2csc3c(=O)[nH]c(N4CCC(C(=O)NCCc5cccnc5)CC4)nc23)c1 [CBK215627]	94%
Cc1ccc(-c2cc(C(=O)Nc3ccc(S(=O)(=O)Nc4nccs4)cc3)c3ccccc3n2)c(C)c1 [CBK262638]	85.3%
C[C@@H](c1ccccc1)n1c(=O)[nH]c2ncc(-c3ccc(C(=O)NC4CCCC4)cc3)nc21 [CBK064542]	91.2%
O=[N+]([O-])c1ccc(S(=O)(=O)Nc2cccc3[nH]ccc23)cc1 [CBK159550]	87.1%
Cn1nc(C(C)(C)C)cc1C(=O)N1CCNC(=O)C1Cc1ccc(-c2cccs2)cc1 (centres unmarked) [CBK285810]	92.2%
O=C(CN1C(=O)c2ccccc2C1=O)Nc1sc2c(c1C(=O)NCc1ccco1)CCCC2 [CBK265670]	87.9%
CN(C)CCCn1c(=O)n(CC(=O)O)c(=O)c2c3c(sc21)CCC3 [CBK286783]	110%

SMILES	viability at 28.5 h, 10 µM
CC(=O)c1ccc(N2CCN(S(=O)(=O)c3ccc(O)c(C(=O)O)c3)CC2)cc1 [CBK296961]	94%
CN(C)c1ccccc1C1(O)CN2CCC1CC2 (centres unmarked) [CBK022620]	86.8%
C=CCn1c2cc(C)sc2c2cnn(CCC(C)=O)c(=O)c21 [CBK282868]	95.7%
CC(C)n1c(=O)n(CCN2CCCC2)c2cccnc21 [CBK283532]	98.6%
Nc1nc2cccnc2cc1-c1cccc(C(F)(F)F)c1 [CBK081200]	103%
O=C(c1cccs1)N1CCC(n2cnc3cccnc32)CC1 [CBK283938]	88.4%
Cc1ccc(O)c(Nc2ncnc3ccc(Br)cc23)c1 [CBK269028C]	98.3%
CS(=O)(=O)NCC1CCCCN1Cc1ccc(-n2cccn2)cc1 (centres unmarked) [CBK305587]	91.9%
CC(C)Nc1cncc(OCCN2CCNCC2)n1 [CBK115601]	93.6%
COC(=O)[C@@H]1CN(C(=O)Nc2ccccc2)CCN1C(C)=O [CBK289606]	88%
CC(C)(C)OC(=O)N1CCN(C(=O)c2cc(-c3cccnc3)on2)CC1 [CBK305648]	88.7%
CCCCC(c1cccnc1)N(C)C(=O)Cn1ccccc1=O (centres unmarked) [CBK306936]	104%
O=C(O)c1cc(NC(=O)c2ccc(NC(=O)c3ccco3)cc2)cc(C(=O)O)c1 [CBK265149]	111%
Cc1cccc(/C(C#N)=C\c2cn(CC(=O)O)c3ccccc23)c1 [CBK269457]	110%
c1ccc2c(OCc3nnn[nH]3)cccc2c1 [CBK269495]	103%
Cc1nc2ccc(Cl)cn2c1CN1CCN(C2CCCC2)C(=O)C1 [CBK281452]	84%
Brc1cnc(-n2cnc3ccccc32)nc1 [CBK288546]	84.2%
Cc1cc(=O)oc(-c2ccccc2)c1C#N [CBK004842]	95%
COCCCNC(=O)Cn1cccc2cc(-c3ccc(F)cc3)nc1-2 [CBK284834]	93.4%
CN(C)CCN(C)c1cc(-c2cccc(C(=O)O)c2)nc2ccnn12 [CBK037206]	101%

Same assay, conditions: human, hela cells, % viability, bulk resorufin, single well

SMILES	viability at 28.5 h, 10 µM
NC(=O)C[S+]([O-])C(c1ccccc1)c1ccccc1 (centres unmarked) [CBK026184]	102%
